Experimental data: ChEMBL document CHEMBL6078658, “Use of imidazo[1,5-a]quinoline scaffold as the pharmacophore in the design of bivalent ligands of central benzodiazepine receptors” (Bioorg Med Chem, 2025)

Experiments:
[1] = target: T1, GABA-A receptor; alpha-1/beta-3/gamma-2 (Homo sapiens, UniProt P14867+P18507+P28472); experiment: Displacement of [3H]flumazenil from human recombinant alpha1-beta3-gamma2 GABAA receptors expressed in mouse LTK- cells incubated for 1 hr by liquid scintillation counter analysis; type: cell-based
T1 sequence (P14867 whole entry): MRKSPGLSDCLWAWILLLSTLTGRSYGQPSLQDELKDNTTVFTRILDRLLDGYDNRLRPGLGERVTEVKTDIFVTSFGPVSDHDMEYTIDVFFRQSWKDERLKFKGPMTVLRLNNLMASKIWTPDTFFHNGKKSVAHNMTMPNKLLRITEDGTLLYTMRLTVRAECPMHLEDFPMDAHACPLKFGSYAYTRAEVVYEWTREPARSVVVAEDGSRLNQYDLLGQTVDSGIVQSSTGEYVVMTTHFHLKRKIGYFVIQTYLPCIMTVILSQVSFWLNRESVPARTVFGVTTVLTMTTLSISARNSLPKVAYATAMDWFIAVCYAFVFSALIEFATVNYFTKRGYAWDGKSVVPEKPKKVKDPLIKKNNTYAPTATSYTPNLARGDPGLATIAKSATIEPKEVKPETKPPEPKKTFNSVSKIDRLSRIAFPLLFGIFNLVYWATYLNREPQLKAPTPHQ
T1 sequence (P18507 whole entry): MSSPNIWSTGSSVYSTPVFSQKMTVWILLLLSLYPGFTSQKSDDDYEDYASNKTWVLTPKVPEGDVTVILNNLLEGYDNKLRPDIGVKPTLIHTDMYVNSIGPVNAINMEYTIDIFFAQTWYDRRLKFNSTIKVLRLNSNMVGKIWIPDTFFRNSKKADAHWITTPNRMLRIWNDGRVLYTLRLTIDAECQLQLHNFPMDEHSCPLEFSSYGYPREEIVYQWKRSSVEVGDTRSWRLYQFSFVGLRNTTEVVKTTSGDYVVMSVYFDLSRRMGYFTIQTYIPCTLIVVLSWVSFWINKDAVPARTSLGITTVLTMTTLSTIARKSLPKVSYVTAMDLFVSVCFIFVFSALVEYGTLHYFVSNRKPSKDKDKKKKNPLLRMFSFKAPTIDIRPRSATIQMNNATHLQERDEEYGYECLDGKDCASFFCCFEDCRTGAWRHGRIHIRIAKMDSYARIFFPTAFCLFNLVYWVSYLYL
T1 sequence (P28472 whole entry): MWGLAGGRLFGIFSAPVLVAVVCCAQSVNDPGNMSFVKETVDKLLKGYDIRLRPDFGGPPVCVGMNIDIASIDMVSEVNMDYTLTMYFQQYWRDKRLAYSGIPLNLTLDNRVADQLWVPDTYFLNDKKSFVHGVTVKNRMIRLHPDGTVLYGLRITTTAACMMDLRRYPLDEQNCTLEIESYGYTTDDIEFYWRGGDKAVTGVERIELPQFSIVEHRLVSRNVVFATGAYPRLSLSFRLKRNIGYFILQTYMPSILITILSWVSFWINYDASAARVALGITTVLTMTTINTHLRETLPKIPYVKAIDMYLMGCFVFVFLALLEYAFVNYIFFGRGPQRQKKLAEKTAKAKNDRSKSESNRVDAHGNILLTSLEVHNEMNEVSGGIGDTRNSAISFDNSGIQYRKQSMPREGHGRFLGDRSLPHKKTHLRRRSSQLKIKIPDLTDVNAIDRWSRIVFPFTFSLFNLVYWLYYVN

[2] = Displacement of [3H]flumazenil from CBR at low affinity site extracted from cerebral cortex of CD-1 albino mouse incubated for 90 mins by liquid scintillation counter analysis; type: tissue-based
[3] = target: T2, GABA-A receptor; alpha-2/beta-3/gamma-2 (Homo sapiens, UniProt P18507+P28472+P47869); experiment: Displacement of [3H]flumazenil from human recombinant alpha2-beta3-gamma2 GABAA receptors expressed in mouse LTK- cells incubated for 1 hr by liquid scintillation counter analysis; type: cell-based
T2 sequence (P18507 whole entry): T1 sequence (P18507 whole entry)
T2 sequence (P28472 whole entry): T1 sequence (P28472 whole entry)
T2 sequence (P47869 whole entry): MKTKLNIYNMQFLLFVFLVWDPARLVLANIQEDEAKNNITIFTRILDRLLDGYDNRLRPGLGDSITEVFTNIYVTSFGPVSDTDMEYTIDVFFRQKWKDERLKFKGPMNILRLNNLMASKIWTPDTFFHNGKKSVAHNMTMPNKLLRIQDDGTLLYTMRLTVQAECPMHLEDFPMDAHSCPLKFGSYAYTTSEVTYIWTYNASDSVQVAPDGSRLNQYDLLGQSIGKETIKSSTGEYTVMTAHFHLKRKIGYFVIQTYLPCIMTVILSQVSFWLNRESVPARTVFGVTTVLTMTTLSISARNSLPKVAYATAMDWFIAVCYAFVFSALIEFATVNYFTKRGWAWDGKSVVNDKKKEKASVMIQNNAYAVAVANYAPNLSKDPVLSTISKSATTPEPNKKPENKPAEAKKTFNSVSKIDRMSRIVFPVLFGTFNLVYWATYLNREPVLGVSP

[4] = Displacement of [3H]flumazenil from CBR at high affinity site extracted from cerebral cortex of CD-1 albino mouse incubated for 90 mins by liquid scintillation counter analysis; type: tissue-based
Mus musculus [5] = experiment: Myorelaxant effect in CD-1 mouse assessed as time taken for myorelaxation at 20 mg/kg, po measured immediately post-dose by rota rod test (reference value: 5.0 +/- 0.4 min); type: functional
Mus musculus [6] = experiment: Myorelaxant effect in CD-1 mouse assessed as time taken for myorelaxation at 20 mg/kg, po measured after 45 mins post-dose by rota rod test (reference value: 1.0 +/- 0.2 min); type: functional; conditions: 0.75 h
Mus musculus [7] = experiment: Improvement in learning and memory in CD-1 mouse assessed as difference in time taken for training and retention session at 20 mg/kg, po by passive avoidance test (reference value: 76.8 sec); type: functional
Mus musculus [8] = experiment: Myorelaxant effect in CD-1 mouse assessed as time taken for myorelaxation at 20 mg/kg, po measured after 30 mins post-dose by rota rod test (reference value: 1.6 +/- 0.0 min); type: functional; conditions: 0.5 h
Mus musculus [9] = experiment: Myorelaxant effect in CD-1 mouse assessed as time taken for myorelaxation at 20 mg/kg, po measured after 15 mins post-dose by rota rod test (reference value: 3.1 +/- 0.4 min); type: functional; conditions: 0.25 h
Mus musculus [10] = experiment: Improvement in learning and memory in CD-1 mouse assessed as time taken for retention session at 20 mg/kg, po by passive avoidance test (reference value: 15.6 +/- 3.2 sec); type: functional
Mus musculus [11] = experiment: Myorelaxant effect in CD-1 mouse assessed as time taken for myorelaxation at 20 mg/kg, po measured after 60 mins post-dose by rota rod test (reference value: 0.2 +/- 0.3 min); type: functional; conditions: 1 h
Mus musculus [12] = experiment: Anxiolytic activity in CD-1 mouse assessed as time in light at 10 mg/kg treated for 30 mins by light/dark box test (reference value: 112.1 +/- 10.9 sec); type: functional; conditions: 0.5 h
Mus musculus [13] = experiment: Anticonvulsant activity in PTZ-treated CD-1 mouse assessed as time taken for death latency at 20 mg/kg pretreated for 30 mins followed by PTZ treatment measured for 30 mins post-PTZ dose (reference value: 28.4 +/- 4.8 min); type: functional; conditions: 0.5 h
Mus musculus [14] = experiment: Improvement in learning and memory in CD-1 mouse assessed as time taken for training session at 20 mg/kg, po by passive avoidance test (reference value: 15.6 +/- 3.2 sec); type: functional
Mus musculus [15] = experiment: Anxiolytic activity in CD-1 mouse assessed as time in light at 20 mg/kg treated for 30 mins by light/dark box test (reference value: 112.1 +/- 10.9 sec); type: functional; conditions: 0.5 h
Mus musculus [16] = experiment: Anticonvulsant activity in PTZ-treated CD-1 mouse assessed as time taken for convulsion latency at 20 mg/kg pretreated for 30 mins followed by PTZ treatment measured for 30 mins post-PTZ dose (reference value: 19.3 +/- 4.1 min); type: functional; conditions: 0.5 h
[17] = Displacement of [3H]flumazenil from CBR extracted from cerebral cortex of CD-1 albino mouse incubated for 90 mins by liquid scintillation counter analysis; type: cell membranes, Membranes
Mus musculus [18] = experiment: Anxiolytic activity in CD-1 mouse assessed as time in light at 1 mg/kg treated for 30 mins by light/dark box test (reference value: 112.1 +/- 10.9 sec); type: functional; conditions: 0.5 h
Mus musculus [19] = experiment: Improvement in learning and memory in CD-1 mouse assessed as difference in time taken for training and retention session at 1 mg/kg, po by passive avoidance test (reference value: 76.8 sec); type: functional
Mus musculus [20] = experiment: Improvement in learning and memory in CD-1 mouse assessed as time taken for retention session at 1 mg/kg, po by passive avoidance test (reference value: 15.6 +/- 3.2 sec); type: functional
Mus musculus [21] = experiment: Improvement in learning and memory in CD-1 mouse assessed as time taken for training session at 1 mg/kg, po by passive avoidance test (reference value: 15.6 +/- 3.2 sec); type: functional

## CCOC(=O)c1ncn2c1c(C)c(C(=O)NCCCCCCCNC(=O)OC(C)(C)C)c1ccccc12
[1]
  Ki: 31 nM
[2]
  Ki: 6.4 nM
[3]
  Ki: 33 nM
[4]
  Ki: 61 nM

## CCOC(=O)c1ncn2c1c(C)c(C(=O)NCCCCCCNC(=O)OC(C)(C)C)c1ccccc12
[1]
  Ki: 10 nM
Mus musculus [5]
  Time: 5.1 min
Mus musculus [6]
  Time: 0.8 min
Mus musculus [7]
  Time: 77.4 s
Mus musculus [8]
  Time: 1.8 min
[2]
  Ki: 35 nM
Mus musculus [9]
  Time: 3.3 min
Mus musculus [10]
  Time: 95.5 s
Mus musculus [11]
  Time: 0.2 min
Mus musculus [12]
  Time: 109.7 s
[3]
  Ki: 14 nM
Mus musculus [13]
  Time: 43.3 min
Mus musculus [14]
  Time: 18.1 s
Mus musculus [15]
  Time: 144.7 s
[4]
  Ki: 65 nM
Mus musculus [16]
  Time: 24.2 min

## CCOC(=O)c1ncn2c1c(C)c(C(=O)NCCCCCCCCNC(=O)c1c(C)c3c(C(=O)OCC)ncn3c3ccccc13)c1ccccc12
[1]
  Ki: 64 nM
Mus musculus [5]
  Time: 4.5 min
Mus musculus [6]
  Time: 0.7 min
Mus musculus [7]
  Time: 77 s
Mus musculus [8]
  Time: 1.4 min
[2]
  Ki: 52 nM
Mus musculus [9]
  Time: 3 min
Mus musculus [10]
  Time: 91.8 s
Mus musculus [11]
  Time: 0.2 min
Mus musculus [12]
  Time: 96.7 s
[3]
  Ki: 56 nM
Mus musculus [13]
  Time: 41.8 min
Mus musculus [14]
  Time: 14.8 s
Mus musculus [15]
  Time: 173.4 s
[4]
  Ki: 0.05 nM
Mus musculus [16]
  Time: 20.7 min

## CCOC(=O)c1ncn2c1c(C)c(C(=O)NCCCCCCNC(=O)c1c(C)c3c(C(=O)OCC)ncn3c3ccccc13)c1ccccc12
[1]
  Ki: 74 nM
Mus musculus [5]
  Time: 4.9 min
Mus musculus [6]
  Time: 0.7 min
Mus musculus [7]
  Time: 70.8 s
Mus musculus [8]
  Time: 1.9 min
[2]
  Ki: 60 nM
Mus musculus [9]
  Time: 3.2 min
Mus musculus [10]
  Time: 86.1 s
Mus musculus [11]
  Time: 0.1 min
Mus musculus [12]
  Time: 114.3 s
[3]
  Ki: 45 nM
Mus musculus [13]
  Time: 40.5 min
Mus musculus [14]
  Time: 15.3 s
Mus musculus [15]
  Time: 166.2 s
[4]
  Ki: 0.022 nM
Mus musculus [16]
  Time: 22.8 min

## CCOC(=O)c1ncn2c1c(C)c(C(=O)NCCOCCOCCNC(=O)c1c(C)c3c(C(=O)OCC)ncn3c3ccccc13)c1ccccc12
[1]
  Ki: 129 nM
[17]
  Ki: 18 nM
[3]
  Ki: 100 nM

## CCOC(=O)c1ncn2c1c(C)c(C(=O)NCCOCCOCCOCCOCCOCCOCCOCCNC(=O)OC(C)(C)C)c1ccccc12
[1]
  Ki: 42 nM
[17]
  Ki: 0.66 nM
[3]
  Ki: 63 nM

## CCOC(=O)c1ncn2c1c(C)c(C(=O)NCCCCCCCNC(=O)c1c(C)c3c(C(=O)OCC)ncn3c3ccccc13)c1ccccc12
[1]
  Ki: 74 nM
[2]
  Ki: 12 nM
[3]
  Ki: 74 nM
[4]
  Ki: 0.001 nM

## CCOC(=O)c1ncn2c1c(C)c(C(=O)NCCCCCCCCNC(=O)OC(C)(C)C)c1ccccc12
[1]
  Ki: 39 nM
[2]
  Ki: 51 nM
[3]
  Ki: 42 nM
[4]
  Ki: 0.005 nM

## CCOC(=O)c1ncn2c1c(C)c(C(=O)NCCOCCOCCOCCOCCOCCOCCOCCNC(=O)c1c(C)c3c(C(=O)OCC)ncn3c3ccccc13)c1ccccc12
[1]
  Ki: 245 nM
[17]
  Ki: 41 nM
[3]
  Ki: 210 nM

## CCOC(=O)c1ncn2c1c(C)c(C(=O)NCCOCCOCCNC(=O)OC(C)(C)C)c1ccccc12
[1]
  Ki: 615 nM
[17]
  Ki: 12 nM
[3]
  Ki: 400 nM

## CN1C(=O)CN=C(c2ccccc2)c2cc(Cl)ccc21 [DIAZEPAM]
Mus musculus [18]
  Time: 174.9 s
Mus musculus [19]
  Time: 43.6 s
Mus musculus [20]
  Time: 61 s
[2]
  Ki: 3.5 nM
Mus musculus [21]
  Time: 17.4 s

## CCOC(=O)c1ncn2c1CN(C)C(=O)c1cc(F)ccc1-2 [FLUMAZENIL]
[2]
  Ki: 1.3 nM
